In patent US10918891B2, “Cosmetic treatment method for the skin” (SYNTIVIA, priority 2016, dated 2021):

Columns and labels:
[1] = tested on: NativeSkin® skin explants (Genoskin); test: Breaks in the DNA (γ-H2AX marking) of NativeSkin skin explant ex vivo after UVA irradiation; type: cell-based, human; details: composition 0.9 mmol/L topical, 60 J/cm^2 UVA every day for 3 days, n=10 images, FIG. 7
Description: (§1) The test was carried out on NativeSkin® skin explants (Genoskin), a biopsy of skin bathed in a solid, nourishing matrix while its epidermal surface is preserved in contact with the air. The biopsy is firmly anchored in the matrix and sealed in order to prevent any lateral diffusion of formulation intended for topical application.
(§2) The study was carried out on a donor (phototype 2) under the following conditions.
(§3) The compounds tested are implemented in a composition containing them at 0.9 mmol/L in a mixture of Carbopol® (0.5% p/p), DMSO (0.1% p/p) and H2O (qsp 100%).
(§4) The samples are irradiated at 60 J/cm^2 UVA every day for 3 days. A treatment is carried out for 24 h before the irradiation, by application of the composition tested onto the sample (deposition of 40 μl of composition onto the stratum corneum), then a post-treatment of 24 h after the irradiation, in the same manner.
(§5) A Control of the sample of skin non-irradiated and a Control of the sample of skin irradiated are also carried out, both with application of the vehicle alone (0.5% Carbopol®, 0.1% DMSO, H2O). The Control of the non-irradiated sample of skin is introduced into the irradiator in a sheet of aluminium, in such a way as to protect it against UVs.
(§6) The samples are sampled, cut (according to the conventional method of cryo-sectioning implementing paraffin and freezing) and fixed in 1 ml of formalin for 24 h.
(§7) The explants are then included in paraffin and sections of 5 μm are made.
The slides obtained are also marked by immunohistochemistry with the biomarker γ-H2Ax.
(§8) The analysis of the marking is carried out with a DM5000B fluorescence microscope (Leica Microsystems) and 10 images are acquired for each sample.
For the marking with γ-H2Ax, for each image, the total number of nuclei is detected with 4′,6-diamidino-2-phenylindole (dapi). In the same image, the number of nuclei having the marking is quantified. The ratio of the number of positive nuclei, multiplied by 100, to the number of total nuclei, is calculated, in order to obtain a percentage (=(positive nuclei*100)/total nuclei), n=10 per sample.
A statistical analysis is carried out with a student's test by comparing the samples to the control (p value[…], p value<0.05**, p value<0.005***, ns not significant).

[2] = tested on: NativeSkin® skin explants (Genoskin); test: Histological analysis (haematoxylin/eosin) of NativeSkin skin explant ex vivo after UVA irradiation; type: cell-based, human; details: composition 0.9 mmol/L topical, 60 J/cm^2 UVA every day for 3 days, FIG. 5
Description: as §1, §2, §3, §4, §5, §6, §7
The slides are then coloured with haematoxylin (basic compound marking the nuclei) and eosin (acidic compound marking the conjunctive tissue).
as §8

How did the “percentage of nuclei positive for marking with γ-H2AX, compared with controls” value [1] turn out when `Cc1ncc(CO)c(CNC(=O)/C=C/c2ccc(O)c(O)c2)c1O` [Compound (Ia)] was run?
The value was “clearly reduced with respect to the irradiated control sample”.

What about the “Morphology of the epidermis after UVA irradiation (histological analysis)” value [2] of the same compound?
The value was “totally protected”.
